Measurements reported in article PMC12206033, “Selective inhibition of TRPV3 channel by natural rosmarinic acid and its analogs for alleviation of skin lesions through downregulation of NF-κB pathway” (The Journal of Biological Chemistry, 2025).

Assays:
NF-κB p-P65 = conditions: no reference given; read-out: IC50 of NF-κB p-P65 inhibitor; cited from earlier work
[1] = tested on: HEK293T cells expressing hTRPV3; experiment: Hoechst 33342/propidium iodide double staining cell death assay; type: cell-based
Method: For cell death assay, HEK293T cells transfected with hTRPV3 were seeded in 6-well plates and randomly divided into different groups. TRPV3 and NF-κB inhibitors were added 1 h before the addition of Car. After administration of Car for 1 h, cell death was detected using Hoechst 33342/propidium iodide Double Stain Kit (Solarbio). After staining, cells were resuspended with PBS buffer. Five random view images in each group were taken under a microscope (Eclipse Ti, Nikon) and counted using ImageJ software (National Institutes of Health).

[2] = tested on: Car-induced ear swelling and dorsal skin inflammation in mice; experiment: mouse model of ear swelling and dorsal skin inflammation induced by skin sensitizer Car (3%); type: in vivo
Source text: Adult C57BL/6J mice (aged 6–8 weeks, weighing 20 ± 2 g) were purchased from the Beijing Vital River Laboratory Animal Technology Co. Ltd. TRPV3-KO mice were purchased from Cyagen Biosciences Inc. All mice were housed in plastic cages with natural poplar wood bedding materials, accommodating three to five mice per cage. The housing environment was maintained at a controlled room temperature of (23 ± 2) °C and humidity of (50 ± 5) %, with 12-h light/dark cycle (lights on at 7:00 AM and off at 7:00 PM). Mice had free access to food and water. All animal test protocols were approved by the Institutional Animal Care and Use Committee of Qingdao University Health Science Center and were conducted in accordance with institutional and national guidelines for the use and care of animals in experiments. All mice were anesthetized with isoflurane (1%–1.5%) using an isoflurane gas anesthesia device and were euthanized under anesthesia.
(§1) Skin sensitizer Car was dissolved in saline solution containing 30% ethanol. The dorsal skin or ear of mice was swabbed with 3% Car for four consecutive days. To investigate the effects of ROSA, it was diluted to concentration of 0.1/1/10 mM with saline and topically applied on the ear and dorsal skin once a day for 4 days. The control group only received swabs with the solvent.

[3] = tested on: HEK293T cells expressing G573S-TRPV3; experiment: green fluorescence of live HEK293T cells transfected with gain-of-function mutant GFP-TRPV3-G573S; type: cell-based, human; conditions: compound 20 μM
Method: HEK293T cell line was obtained from the Cell Resource Center, Peking Union Medical College. HEK293T cells were maintained in Dulbecco’s modified Eagle’s medium (DMEM, Gibco) supplemented with 10% fetal bovine serum at 37 °C with 5% CO2. HEK293T cells were seeded onto glass coverslips 1 day in advance and transiently transfected with […] complementary deoxyribonucleic acids of human TRPV3 (hTRPV3, accession number NM_145068.4), hTRPV1 (accession number NM_080704.3), mTRPV2 (accession number NM_011706.2), hTRPV4 (accession number NM_021625.5), hTRPA1 (accession number NM_007332.3), and hTRPM8 (accession number NM_024080.5) through Lipofectamine 2000 (Invitrogen) following the manufacture’s protocol. The next day, determine the plasmid transfection status by observing green fluorescence based on expression of enhanced GFP as an indicator. […] When conducting experiments on HEK293T cells transfected with G573S point mutant TRPV3 plasmid, we replaced culture medium with or without compounds after 4 h of transfection and then observed green fluorescence of HEK293T cell after 10 h. As for the relative fluorescence intensity, we convert the image to 8 bit grayscale using ImageJ (Https://imagej.net/software/fiji/downloads) and set an appropriate threshold value to reduce background noise and enhance the image contrast.

hTRPV3 [4] = molecular target: T1, hTRPV3 (Homo sapiens, UniProt Q8NET8); experiment: whole-cell patch-clamp of hTRPV3 currents in HEK293T cells activated by 2-APB; type: cell-based; conditions: for inhibition at 50 µM: HEK-293T, compound 50 μM, agonist 2-APB 50 μM, Fig. 3I, n = 4-5, read-out: inhibition of hTRPV3 currents; for IC50: evoked by 2-APB 50 μM, outward currents at +80 mV, HEK293T, Fig. 3J, n = 5-7, read-out: IC50, inhibition of whole-cell hTRPV3 currents
T1 construct: expressed in transfected cells; host or cells: HEK293T
T1 sequence (Q8NET8 1-790): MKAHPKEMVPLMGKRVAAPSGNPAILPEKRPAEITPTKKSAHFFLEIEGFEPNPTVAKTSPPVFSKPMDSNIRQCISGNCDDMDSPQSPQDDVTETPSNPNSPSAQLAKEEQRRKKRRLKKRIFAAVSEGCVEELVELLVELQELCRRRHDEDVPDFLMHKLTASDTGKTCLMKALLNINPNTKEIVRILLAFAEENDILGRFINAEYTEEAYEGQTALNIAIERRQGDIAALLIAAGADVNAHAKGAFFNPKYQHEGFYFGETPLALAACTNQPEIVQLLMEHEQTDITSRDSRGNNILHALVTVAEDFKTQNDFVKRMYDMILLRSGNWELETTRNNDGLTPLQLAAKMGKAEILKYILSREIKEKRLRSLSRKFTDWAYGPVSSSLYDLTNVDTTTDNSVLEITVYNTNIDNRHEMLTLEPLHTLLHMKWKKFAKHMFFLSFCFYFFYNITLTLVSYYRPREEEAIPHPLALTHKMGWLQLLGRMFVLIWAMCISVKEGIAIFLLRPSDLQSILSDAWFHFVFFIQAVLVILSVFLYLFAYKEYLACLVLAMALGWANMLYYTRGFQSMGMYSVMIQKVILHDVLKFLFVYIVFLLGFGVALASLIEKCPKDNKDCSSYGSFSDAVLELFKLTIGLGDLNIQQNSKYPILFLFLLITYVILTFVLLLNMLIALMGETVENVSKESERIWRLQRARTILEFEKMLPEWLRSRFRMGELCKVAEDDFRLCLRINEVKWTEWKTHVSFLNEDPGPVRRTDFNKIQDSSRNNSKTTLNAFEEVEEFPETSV
Method: HEK293T cell line was obtained from the Cell Resource Center, Peking Union Medical College. HEK293T cells were maintained in Dulbecco’s modified Eagle’s medium (DMEM, Gibco) supplemented with 10% fetal bovine serum at 37 °C with 5% CO2. HEK293T cells were seeded onto glass coverslips 1 day in advance and transiently transfected with […] complementary deoxyribonucleic acids of human TRPV3 (hTRPV3, accession number NM_145068.4), hTRPV1 (accession number NM_080704.3), mTRPV2 (accession number NM_011706.2), hTRPV4 (accession number NM_021625.5), hTRPA1 (accession number NM_007332.3), and hTRPM8 (accession number NM_024080.5) through Lipofectamine 2000 (Invitrogen) following the manufacture’s protocol. The next day, determine the plasmid transfection status by observing green fluorescence based on expression of enhanced GFP as an indicator. All WT or mutant hTRPV3 complementary deoxyribonucleic acid plasmids were confirmed by DNA sequencing. When conducting experiments on HEK293T cells transfected with G573S point mutant TRPV3 plasmid, we replaced culture medium with or without compounds after 4 h of transfection and then observed green fluorescence of HEK293T cell after 10 h. As for the relative fluorescence intensity, we convert the image to 8 bit grayscale using ImageJ (Https://imagej.net/software/fiji/downloads) and set an appropriate threshold value to reduce background noise and enhance the image contrast.
(§2) All patch-clamp recordings were conducted 16 to 24 h after transfection using an EPC10 amplifier powered by PatchMaster software (HEKA) (https://www.heka.com/downloads/downloads_main.html#down_patchmaster) at room temperature. The borosilicate glass pipettes were pulled using a DMZ universal electrode puller (Zeitz-Instruments GmbH) to achieve the resistances of three to 5 MΩ (for whole-cell recordings) or five to 9 MΩ (for inside-out patch recordings). Currents were recorded at a potential ramp from −100 mV to +100 mV for 1000 ms with 1000-ms intervals (for whole-cell recordings) or a persistent potential of −60 mV (inside-out patch recordings). Both pipette solution and bath solution contained (in mM): 130 NaCl, 3 Hepes, and 0.2 EDTA (pH = 7.2–7.4). All recording data were analyzed using Igor Pro (Wave-metrics) (https://www.wavemetrics.com/order/order_igordownloads.htm) and Origin 8.6 (Origin Lab) (https://www.originlab.com/doc/zh/Quick-Help/Download-Installer).

[5] = tested on: TRPV3, IL-6, TNF-α, and p-P65 protein expressions; experiment: Western blot of TRPV3 and NF-κB pathway proteins in mouse ear tissues; type: in vivo; conditions: mouse ear tissues treated with 3% Car; day 5
Method: as §1
Skin or ear skin tissues were homogenized in radioimmunoprecipitation assay buffer (Thermo Fisher Scientific) containing protease inhibitors at a ratio of 100:1 per 10 mg tissue and centrifuged at 15,000 rpm for 15 min. The protein concentration was quantified using a bicinchoninic acid kit (Thermo Fisher Scientific), followed by SDS-PAGE for Western blot analysis. Protein transfer was performed at 150 mA for 90 min, and the transferred membranes (Millipore) were incubated with primary antibodies (TRPV3 antibody, 1:1000, TNF-α antibody, 1:1000, IL-6 antibody, 1:2500, P65 antibody, 1:1000 and p-P65 antibody, 1:1000) in 5% skim milk (Becton, Dickinson and Company). […] Images were quantified using the Image Lab software (https://www.bio-rad.com/zh-cn/product/image-lab-software?ID=KRE6P5E8Z).

hTRPV3 [6] = molecular target: T1, hTRPV3; experiment: single-channel inside-out patch recordings of hTRPV3 in HEK293T cells; type: cell-based; conditions: 2-APB 50 μM or Car 300 μM alone, n = 5
Method: HEK293T cell line was obtained from the Cell Resource Center, Peking Union Medical College. HEK293T cells were maintained in Dulbecco’s modified Eagle’s medium (DMEM, Gibco) supplemented with 10% fetal bovine serum at 37 °C with 5% CO2. HEK293T cells were seeded onto glass coverslips 1 day in advance and transiently transfected with […] complementary deoxyribonucleic acids of human TRPV3 (hTRPV3, accession number NM_145068.4), hTRPV1 (accession number NM_080704.3), mTRPV2 (accession number NM_011706.2), hTRPV4 (accession number NM_021625.5), hTRPA1 (accession number NM_007332.3), and hTRPM8 (accession number NM_024080.5) through Lipofectamine 2000 (Invitrogen) following the manufacture’s protocol. The next day, determine the plasmid transfection status by observing green fluorescence based on expression of enhanced GFP as an indicator. […] As for the relative fluorescence intensity, we convert the image to 8 bit grayscale using ImageJ (Https://imagej.net/software/fiji/downloads) and set an appropriate threshold value to reduce background noise and enhance the image contrast.
as §2

[7] = CCK-8 cell viability assay; type: cell-based; conditions: human, HEK293T cells expressing hTRPV3, Car 300 μM for 1 h, read-out: cell viability rate, Car alone
Method: For cell viability assay, hTRPV3-HEK293T cells were seeded in 96-well plates for 12 to 16 h before exposed to Car in DMEM containing 2% fetal bovine serum for 1 h. TRPV3 and NF-κB inhibitors were added 1 h before the addition of Car. After removing the medium containing chemical compounds, hTRPV3-HEK293T cells were incubated with DMEM containing 10% CCK-8 (TargetMol) for 1 h. Cell viability was then assessed using the Sunrise microplate reader under the light absorbance at 450 nm (TECAN, CH).

[8] = inhibitor 20 μM added 1 h before Car 300 μM
[9] = topical JSH-23 20 μM in 100 μl coapplied with Car for consecutive 4 days, mouse dorsal skin

inhibition at 50 µM (hTRPV3 [4]) [%]	IC50 (hTRPV3 [4]) [µM]	Compound	cell death ratio [1, 8] [%]	green fluorescence of live cells [3]	single-channel open probability, agonist alone (hTRPV3 [6])	also measured
		Cc1ccc(NCCCc2ccccc2)c(N)c1 [JSH-23]	17	robust green fluorescence		IC50 (NF-κB p-P65): 7.1 µM; cell death ratio ([1]; inhibitor 5 μM added 1 h before Car 300 μM): 21%; dermatitis scores [2, 9]: reduction of dermatitis scores; dorsal skin inflammation [2, 9]: significant alleviation of the dorsal skin inflammation
9 ± 5.2	157 ± 34.5	COC(=O)[C@@H](Cc1ccc(O)c(O)c1)OC(=O)/C=C/c1ccc(O)c(O)c1 [MROSA, methyl rosmarinate]				
		Cc1ccc(C(C)C)cc1O [Car, carvacrol, reference compound]			0.77 ± 0.09	protein expressions of TRPV3, IL-6, TNF-α, and p-P65, Car alone [5]: upregulated; cell death ratio, Car alone ([1]; Car 300 μM for 1 h, vehicle control 8%): 30%; ear skin inflammation, thickness and ear swelling scores, Car alone ([2]; topical Car for consecutive 4 days, WT mice): ear skin inflammation with significantly increased thickness and ear swelling scores; viability at 1 h, 300 μM [7]: 72%
		NCCOB(c1ccccc1)c1ccccc1 [2-APB, 2-aminoethoxydiphenyl borate, reference compound]			0.67 ± 0.05	
		N.N.N.N.N.N.N.N.N.N.N.N.N.N.[Cl-].[Cl-].[Cl-].[Cl-].[Cl-].[Cl-].[O-2].[O-2].[Ru+3].[Ru+3].[Ru+4] [RR, ruthenium red]	23	robust green fluorescence		
~40.1	67.7 ± 22.4	O=C(/C=C/c1ccc(O)c(O)c1)NCCc1ccc(O)c(O)c1 [CADA, (E)-3-(3,4-dihydroxyphenyl)-N-(2-(3,4-dihydroxyphenyl)ethyl)-2-propenamide]				
